Experimental data: patent US7445765B2, “Radiopharmaceutical for diagnostic imaging containing a technetium-99m nitride heterocomplex” (Nihon Medi-Physics Co., Ltd., priority 2000, dated 2008)
One block for each compound: values may come before it.

Test: Biodistribution of the 99mTc(N) heterocomplexes in rats (organ uptake, heart accumulation, heart/lung and heart/liver ratios)
Assay type: in vivo, female Sprague-Dawley rats
Conditions: rats
Protocol: The biodistribution was measured by using female Sprague-Dawley rats (SD rats) weighing 200 g to 250 g. Each of the ^99mTc(N) heterocomplexes purified in the manner described above was diluted with phosphate buffer (0.1 M, pH=7.4) to obtain a final solution having an ethanol content of 10%. After the SD rats were anesthetized with an intramuscular injection of a mixture of ketamine (80 mg/kg) and xilazine (19 mg/kg), the jugular vein of each rat was surgically exposed and 100 μL (300 to 370 kBq) of the solution containing each ^99mTc(N) heterocomplexes prepared in the manner described above was injected in the jugular vein. The rats (n=3) were sacrificed by cervical dislocation at different times post injection. The blood was withdrawn from the heart through a syringe and counted. It was assumed that the whole blood content was 6.5% of the total body weight. The organs were excised from the rats, washed with physiological saline, weighed, and counted in a NaI well counter.
For comparison, Tables 19 and 20 show the results, obtained in the same manner as above, of measuring the biodistribution of (^99mTc) (MIBI) and (^99mTc) (Tf) which have been used as pharmaceuticals for diagnostic imaging for blood flow in myocardium.
Tables 21 to 23 show data showing the variations with time of heart accumulation, heart/lung ratios and heart/liver ratios for the ^99mTc(N) heterocomplexes of the present invention.

Biodistribution, Adrenal glands (0 min): 2.80 ± 0.17 % ID/g
Biodistribution, Blood (0 min): 0.34 ± 0.07 % ID/g
Biodistribution, Brain (0 min): 0.26 ± 0.01 % ID/g
Biodistribution, Heart (0 min): 3.56 ± 0.22 % ID/g
Biodistribution, Intestine (0 min): 3.55 ± 0.37 % ID/g
Biodistribution, Kidneys (0 min): 9.23 ± 0.62 % ID/g
Biodistribution, Liver (0 min): 1.36 ± 0.12 % ID/g
Biodistribution, Lungs (0 min): 1.65 ± 0.08 % ID/g
Biodistribution, Muscle (0 min): 0.24 ± 0.04 % ID/g
Biodistribution, Spleen (0 min): 2.65 ± 0.26 % ID/g
Biodistribution, Submaxillary glands (0 min): 1.43 ± 0.41 % ID/g
Biodistribution, Adrenal glands (2 min): 1.60 ± 0.01 % ID/g
Biodistribution, Blood (2 min): 0.11 ± 0.01 % ID/g
Biodistribution, Brain (2 min): 0.04 ± 0.01 % ID/g
Biodistribution, Heart (2 min): 3.25 ± 0.17 % ID/g
Biodistribution, Intestine (2 min): 3.71 ± 0.01 % ID/g
Biodistribution, Kidneys (2 min): 10.12 ± 0.15 % ID/g
Biodistribution, Liver (2 min): 1.88 ± 0.08 % ID/g
Biodistribution, Lungs (2 min): 1.18 ± 0.13 % ID/g
Biodistribution, Muscle (2 min): 0.14 ± 0.00 % ID/g
Biodistribution, Spleen (2 min): 2.76 ± 0.66 % ID/g
Biodistribution, Submaxillary glands (2 min): 1.01 ± 0.23 % ID/g
Biodistribution, Adrenal glands (10 min): 3.28 ± 0.39 % ID/g
Biodistribution, Blood (10 min): 0.07 ± 0.01 % ID/g
Biodistribution, Brain (10 min): 0.05 ± 0.01 % ID/g
Biodistribution, Heart (10 min): 3.37 ± 0.45 % ID/g
Biodistribution, Intestine (10 min): 5.40 ± 0.33 % ID/g
Biodistribution, Kidneys (10 min): 11.45 ± 1.62 % ID/g
Biodistribution, Liver (10 min): 2.21 ± 0.27 % ID/g
Biodistribution, Lungs (10 min): 1.36 ± 0.31 % ID/g
Biodistribution, Muscle (10 min): 0.18 ± 0.01 % ID/g
Biodistribution, Spleen (10 min): 3.16 ± 0.62 % ID/g
Biodistribution, Submaxillary glands (10 min): 1.12 ± 0.12 % ID/g
Biodistribution, Adrenal glands (20 min): 3.05 ± 0.04 % ID/g
Biodistribution, Blood (20 min): 0.05 ± 0.01 % ID/g
Biodistribution, Brain (20 min): 0.04 ± 0.01 % ID/g
Biodistribution, Heart (20 min): 3.16 ± 0.22 % ID/g
Biodistribution, Intestine (20 min): 4.90 ± 0.23 % ID/g
Biodistribution, Kidneys (20 min): 8.14 ± 1.30 % ID/g
Biodistribution, Liver (20 min): 1.98 ± 0.60 % ID/g
Biodistribution, Lungs (20 min): 0.99 ± 0.11 % ID/g
Biodistribution, Muscle (20 min): 0.15 ± 0.05 % ID/g
Biodistribution, Spleen (20 min): 2.11 ± 0.18 % ID/g
Biodistribution, Submaxillary glands (20 min): 1.07 ± 0.04 % ID/g
Biodistribution, Adrenal glands (30 min): 3.49 ± 0.67 % ID/g
Biodistribution, Blood (30 min): 0.05 ± 0.01 % ID/g
Biodistribution, Brain (30 min): 0.04 ± 0.02 % ID/g
Biodistribution, Heart (30 min): 3.70 ± 0.04 % ID/g
Biodistribution, Intestine (30 min): 5.42 ± 0.05 % ID/g
Biodistribution, Kidneys (30 min): 6.46 ± 0.11 % ID/g
Biodistribution, Liver (30 min): 1.37 ± 0.22 % ID/g
Biodistribution, Lungs (30 min): 0.72 ± 0.01 % ID/g
Biodistribution, Muscle (30 min): 0.17 ± 0.05 % ID/g
Biodistribution, Spleen (30 min): 2.89 ± 0.29 % ID/g
Biodistribution, Submaxillary glands (30 min): 1.08 ± 0.09 % ID/g
Biodistribution, Adrenal glands (60 min): 3.50 ± 0.60 % ID/g
Biodistribution, Blood (60 min): 0.03 ± 0.00 % ID/g
Biodistribution, Brain (60 min): 0.04 ± 0.00 % ID/g
Biodistribution, Heart (60 min): 3.18 ± 0.17 % ID/g
Biodistribution, Intestine (60 min): 6.49 ± 1.43 % ID/g
Biodistribution, Kidneys (60 min): 4.42 ± 0.11 % ID/g
Biodistribution, Liver (60 min): 1.57 ± 0.11 % ID/g
Biodistribution, Lungs (60 min): 0.47 ± 0.24 % ID/g
Biodistribution, Muscle (60 min): 0.18 ± 0.01 % ID/g
Biodistribution, Spleen (60 min): 1.88 ± 0.15 % ID/g
Biodistribution, Submaxillary glands (60 min): 1.17 ± 0.05 % ID/g
Biodistribution, Adrenal glands (120 min): 2.43 ± 0.13 % ID/g
Biodistribution, Blood (120 min): 0.02 ± 0.00 % ID/g
Biodistribution, Brain (120 min): 0.03 ± 0.00 % ID/g
Biodistribution, Heart (120 min): 3.04 ± 0.14 % ID/g
Biodistribution, Intestine (120 min): 4.15 ± 1.02 % ID/g
Biodistribution, Kidneys (120 min): 3.49 ± 0.05 % ID/g
Biodistribution, Liver (120 min): 1.02 ± 0.23 % ID/g
Biodistribution, Lungs (120 min): 0.47 ± 0.06 % ID/g
Biodistribution, Muscle (120 min): 0.28 ± 0.05 % ID/g
Biodistribution, Spleen (120 min): 1.23 ± 0.18 % ID/g
Biodistribution, Submaxillary glands (120 min): 1.19 ± 0.05 % ID/g
SMILES: [99Tc].[C-]#[N+]CC(C)(C)OC.[C-]#[N+]CC(C)(C)OC.[C-]#[N+]CC(C)(C)OC.[C-]#[N+]CC(C)(C)OC.[C-]#[N+]CC(C)(C)OC.[C-]#[N+]CC(C)(C)OC [(^99mTc) (MIBI), reference compound]

Biodistribution, Adrenal glands (0 min): 2.60 % dose/g
Biodistribution, Blood (0 min): 1.42 % dose/g
Biodistribution, Brain (0 min): 0.18 % dose/g
Biodistribution, Heart (0 min): 2.26 % dose/g
Biodistribution, Intestine (0 min): 2.91 % dose/g
Biodistribution, Kidneys (0 min): 5.56 % dose/g
Biodistribution, Liver (0 min): 3.59 % dose/g
Biodistribution, Lungs (0 min): 3.87 % dose/g
Biodistribution, Muscle (0 min): 0.06 % dose/g
Biodistribution, Spleen (0 min): 1.68 % dose/g
Biodistribution, Submax. glands (0 min): 1.17 % dose/g
Biodistribution, Adrenal glands (2 min): 3.49 % dose/g
Biodistribution, Blood (2 min): 0.17 % dose/g
Biodistribution, Brain (2 min): 0.03 % dose/g
Biodistribution, Heart (2 min): 1.241 % dose/g
Biodistribution, Intestine (2 min): 3.54 % dose/g
Biodistribution, Kidneys (2 min): 9.57 % dose/g
Biodistribution, Liver (2 min): 5.94 % dose/g
Biodistribution, Lungs (2 min): 1.25 % dose/g
Biodistribution, Muscle (2 min): 0.17 % dose/g
Biodistribution, Spleen (2 min): 3.85 % dose/g
Biodistribution, Submax. glands (2 min): 1.26 % dose/g
Biodistribution, Adrenal glands (10 min): 4.48 % dose/g
Biodistribution, Blood (10 min): 0.06 % dose/g
Biodistribution, Brain (10 min): 0.03 % dose/g
Biodistribution, Heart (10 min): 1.39 % dose/g
Biodistribution, Intestine (10 min): 6.21 % dose/g
Biodistribution, Kidneys (10 min): 9.80 % dose/g
Biodistribution, Liver (10 min): 7.71 % dose/g
Biodistribution, Lungs (10 min): 1.10 % dose/g
Biodistribution, Muscle (10 min): 0.16 % dose/g
Biodistribution, Spleen (10 min): 4.00 % dose/g
Biodistribution, Submax. glands (10 min): 1.27 % dose/g
Biodistribution, Adrenal glands (20 min): 3.19 % dose/g
Biodistribution, Blood (20 min): 0.03 % dose/g
Biodistribution, Brain (20 min): 0.03 % dose/g
Biodistribution, Heart (20 min): 1.18 % dose/g
Biodistribution, Intestine (20 min): 8.54 % dose/g
Biodistribution, Kidneys (20 min): 8.18 % dose/g
Biodistribution, Liver (20 min): 6.55 % dose/g
Biodistribution, Lungs (20 min): 0.80 % dose/g
Biodistribution, Muscle (20 min): 0.09 % dose/g
Biodistribution, Spleen (20 min): 3.13 % dose/g
Biodistribution, Submax. glands (20 min): 1.03 % dose/g
Biodistribution, Adrenal glands (30 min): 3.08 % dose/g
Biodistribution, Blood (30 min): 0.05 % dose/g
Biodistribution, Brain (30 min): 0.02 % dose/g
Biodistribution, Heart (30 min): 1.05 % dose/g
Biodistribution, Intestine (30 min): 7.75 % dose/g
Biodistribution, Kidneys (30 min): 7.52 % dose/g
Biodistribution, Liver (30 min): 4.66 % dose/g
Biodistribution, Lungs (30 min): 0.60 % dose/g
Biodistribution, Muscle (30 min): 0.11 % dose/g
Biodistribution, Spleen (30 min): 2.43 % dose/g
Biodistribution, Submax. glands (30 min): 1.08 % dose/g
Biodistribution, Adrenal glands (60 min): 3.49 % dose/g
Biodistribution, Blood (60 min): 0.02 % dose/g
Biodistribution, Brain (60 min): 0.01 % dose/g
Biodistribution, Heart (60 min): 1.10 % dose/g
Biodistribution, Intestine (60 min): 8.37 % dose/g
Biodistribution, Kidneys (60 min): 6.60 % dose/g
Biodistribution, Liver (60 min): 3.55 % dose/g
Biodistribution, Lungs (60 min): 0.48 % dose/g
Biodistribution, Muscle (60 min): 0.12 % dose/g
Biodistribution, Spleen (60 min): 2.64 % dose/g
Biodistribution, Submax. glands (60 min): 1.30 % dose/g
Biodistribution, Adrenal glands (120 min): 3.47 % dose/g
Biodistribution, Blood (120 min): 0.02 % dose/g
Biodistribution, Brain (120 min): 0.01 % dose/g
Biodistribution, Heart (120 min): 1.29 % dose/g
Biodistribution, Intestine (120 min): 9.70 % dose/g
Biodistribution, Kidneys (120 min): 8.83 % dose/g
Biodistribution, Liver (120 min): 2.55 % dose/g
Biodistribution, Lungs (120 min): 0.33 % dose/g
Biodistribution, Muscle (120 min): 0.14 % dose/g
Biodistribution, Spleen (120 min): 2.02 % dose/g
Biodistribution, Submax. glands (120 min): 1.36 % dose/g
SMILES: CCOCCC[P]1(CCCOCC)CCN(CCOCC)CC[P](CCCOCC)(CCCOCC)[99Tc+]12(#[N])[S]C(N(CCOCC)CCOCC)=[S]2 [PNP6•DBODC]

Heart/liver ratio in biodistribution (0 min): 6.11
Heart/lung ratio in biodistribution (0 min): 0.76
Heart/liver ratio in biodistribution (2 min): 1.48
Heart/lung ratio in biodistribution (2 min): 3.98
Heart/liver ratio in biodistribution (10 min): 2.29
Heart/lung ratio in biodistribution (10 min): 4.19
Heart/liver ratio in biodistribution (20 min): 3.78
Heart/lung ratio in biodistribution (20 min): 6.37
Heart/liver ratio in biodistribution (30 min): 5.18
Heart/lung ratio in biodistribution (30 min): 5.83
Heart/liver ratio in biodistribution (60 min): 18.8
Heart/lung ratio in biodistribution (60 min): 8.17
Heart/liver ratio in biodistribution (120 min): 33.1
Heart/lung ratio in biodistribution (120 min): 13.24
SMILES: CCOCCN1CC[P](CCCOC)(CCCOC)[99Tc+]2(#[N])([S]C(N(CCOCC)CCOCC)=[S]2)[P](CCCOC)(CCCOC)CC1 [[^99mTc(N) (PNP5) (DBODC)^+]]
